In data set [1] the test system is cell-free protein synthesis system (S30 extract). Description: cell-free synthesis of BR by the dialysis method with the cholate concentration kept constant. The format is biochemical, E. coli. The note with it: 1% sodium cholate added to internal and external dialysis solutions; FIG. 2, Lanes 3, 4. As for the experimental part:
A protein synthesis reaction was performed as follows: an internal solution of the composition as shown in table 1 as mentioned below was supplied with 100 μM all-trans retinal at final concentration (Sigma), 9 μg of synthetic plasmid as necessary, a predetermined concentration of a detergent, and 6 mg of egg yolk phosphatidylcholine (Type XVI-E, Sigma) to prepare a reaction solution, 0.9 ml of which was poured into a dialysis membrane (Spectra/Por 7, Molecular Weight Cut Off: 15000, Spectrum). The synthesis reaction was performed at 30° C. for 6 h during dialysis which was to 10 times volume of external solution (9 mL) in a 15 mL conical tube by rotary shaking with a rotary shaker (RT-50, TAITEC). […]
After termination of the synthesis reaction, the reaction internal solution was centrifuged at 15000 rpm for 10 min. […] Scatter correction was performed by subjecting the determined scores from 680 nm to 750 nm to linear regression to subtract from the measured spectrums. The amount of an active BR was calculated from the score of the spectrum of 560 nm as subjected to the scatter correction using the molar absorption coefficient: 42000 and the molecular weight: 31.4 k. […]

The conditions of data set [2]: in water; cited from earlier work.

The text below walks through data of patent publication US8226976B2, “Method of using cell-free protein synthesis to produce a membrane protein” (Riken, priority 2007, dated 2012).

Molecules are shown by their SMILES.

As to `C[C@H](CCC(=O)[O-])[C@H]1CC[C@H]2[C@@H]3[C@H](O)C[C@@H]4C[C@H](O)CC[C@]4(C)[C@H]3C[C@H](O)[C@]12C.[Na+]` [sodium cholate], the “synthesis of BR (effect of inhibiting protein synthesis)” value in data set [1] is reported as “synthesis of BR was not found”. Moreover, the “critical micelle concentration (cmc)” value in data set [2] was 0.41 % (w/v).

With `C[C@H](CCC(=O)NCCC[N+](C)(C)CCCS(=O)(=O)[O-])[C@H]1CC[C@H]2[C@@H]3[C@H](O)C[C@@H]4C[C@H](O)CC[C@]4(C)[C@H]3C[C@H](O)[C@]12C` [CHAPS, 3-[(3-cholamidepropyl)dimethylammonio]-1-propanesulfonate], the “critical micelle concentration (cmc)” value in data set [2] was 0.49 % (w/v). With `C[C@@H]1CC[C@@]2(OC1)O[C@H]1[C@@H](O)[C@H]3[C@@H]4CC[C@H]5C[C@@H](O[C@@H]6O[C@H](CO)[C@H](O[C@@H]7O[C@H](CO)[C@@H](O)[C@H](O[C@@H]8OC[C@@H](O)[C@H](O)[C@H]8O)[C@H]7O[C@@H]7O[C@H](CO)[C@H](O)[C@H](O[C@@H]8O[C@H](CO)[C@@H](O)[C@H](O)[C@H]8O)[C@H]7O)[C@H](O)[C@H]6O)[C@H](O)C[C@]5(C)[C@H]4CC[C@]3(C)[C@H]1[C@@H]2C` [digitonin], the “critical micelle concentration (cmc)” value in data set [2] is 0.06 % (w/v).
